According to patent US11357857B2, “Excipient compounds for protein processing” (COMERA LIFE SCIENCES, INC., priority 2014, dated 2022):
Structures can show the parent of a compound that is named as a salt. Where two headings read alike, the source gives them in different places. Residues, ends and D or L forms follow the SMILES beside them.

What was measured:
[1] = system: bovine gamma globulin (BGG)
[2] = Viscosity of PEG (Mw ~1,000,000) solution in Tris buffer with excipient (Examples 12-13); assay type: physicochemical
[3] = system: bovine gamma globulin (BGG); assay: Viscosity of 280 mg/mL BGG formulations in 50 mM histidine HCl pH 6 with excipient, cone and plate viscometer (Examples 1, 2, 4-6); assay type: physicochemical
[4] = system: bovine gamma globulin (BGG); assay: Normalized viscosity of 280 mg/mL BGG in 20 mM histidine with excipients A/B (Example 20); assay type: physicochemical; conditions: no B
From the text: Excipient compounds for this Example are listed below in Table 11.

[5] = excipient 10 mg/mL
[6] = system: bovine gamma globulin (BGG); assay: Normalized viscosity of 280 mg/mL BGG in 50 mM histidine HCl with primary/secondary excipient combinations (Example 10); assay type: physicochemical
Description: The primary excipient compounds were selected from compounds having both anionic and aromatic functionality, as listed below in Table 5. The secondary excipient compounds were selected from compounds having either nonionic or cationic charge at pH 6 and either imidazoline or benzene rings, as listed below in Table 5. Formulations of these excipients were prepared in 50 mM histidine hydrochloride buffer solution for viscosity measurement in the following way. […] The individual primary or secondary excipient compounds were then dissolved in 50 mM histidine HCl.

[7] = Caffeine solubility testing with co-solutes at ambient temperature (Examples 32-33); conditions: for Observation of caffeine dissolution: caffeine 80 mg/mL; for Dissolution of caffeine enabled relative to reported solubility limit: co-solute in water, ambient temperature (about 23 C)
Description: Prepared solutions were used either neat or diluted with deionized water.
A small magnetic stir bar was added to the vial, and the solution was allowed to mix vigorously on a stir plate for about 10 minutes.

O=C([O-])C(=O)Cc1ccccc1.[Na+] [Sodium phenylpyruvate]
Viscosity Reduction ([1]; excipient 55 mg/mL): 43%

CCCCn1cc[n+](C)c1.[I-] [1-butyl-3-methylimidazolium iodide]
Viscosity Reduction ([1]; excipient 60 mg/mL): 34%

O=C(O)[C@H](O)[C@@H](O)[C@H](O)[C@H](O)CO [D-Gluconic acid/Na salt, D-Gluconic acid]
Viscosity ([2]; excipient 20 mg/mL): 86.6 cP | Viscosity Reduction ([2]; excipient 20 mg/mL): 17% | Viscosity ([2]; excipient 40 mg/mL): 81.24 cP | Viscosity Reduction ([2]; excipient 40 mg/mL): 23%

CN(C)C1CCCCC1 [DMCHA-HCl, dimethylcyclohexylamine]
Viscosity [3]: 35 cP | Viscosity Reduction [3]: 56% | Viscosity ([3]; excipient 28 mg/mL): 50 cP | Viscosity Reduction ([3]; excipient 28 mg/mL): 37% | Viscosity ([3]; excipient 41 mg/mL): 43 cP | Viscosity Reduction ([3]; excipient 41 mg/mL): 46% | Viscosity ([3]; excipient 50 mg/mL): 45 cP | Viscosity Reduction ([3]; excipient 50 mg/mL): 43% | Viscosity ([3]; excipient 82 mg/mL): 36 cP | Viscosity Reduction ([3]; excipient 82 mg/mL): 54% | Viscosity ([3]; excipient 164 mg/mL): 40 cP | Viscosity Reduction ([3]; excipient 164 mg/mL): 49% | Viscosity Reduction ([1]; excipient 120 mg/mL): 56%

Cc1cc(C)nc(C)c1 [2,4,6-trimethylpyridine]
Viscosity Reduction ([1]; excipient 50 mg/mL): 51%

O=C1NS(=O)(=O)c2ccccc21 [Saccharin]
Normalized Viscosity ([4]; excipient A 30 mg/mL): 0.58 | Normalized Viscosity ([4]; excipient A 60 mg/mL): 0.51

Cl.NCCc1c[nH]cn1 [Histamine HCl]
Viscosity Reduction ([1]; excipient 50 mg/mL): 59%

O=C(O)[C@H](O)[C@@H](O)[C@H](O)[C@H](O)CO [D-Gluconic acid/K salt, D-Gluconic acid]
Viscosity ([2]; excipient 20 mg/mL): 88.4 cP | Viscosity Reduction ([2]; excipient 20 mg/mL): 16% | Viscosity ([2]; excipient 40 mg/mL): 80.32 cP | Viscosity Reduction ([2]; excipient 40 mg/mL): 23%

O=P(O)(O)OCC(O)CO (stereo not drawn) [glycerol phosphate]
Viscosity ([2]; excipient 20 mg/mL): 83.9 cP | Viscosity Reduction ([2]; excipient 20 mg/mL): 18% | Viscosity ([2]; excipient 40 mg/mL): 71.7 cP | Viscosity Reduction ([2]; excipient 40 mg/mL): 30%

O=S(=O)([O-])[O-].[Na+].[Na+] [Sodium sulfate]
Viscosity [5]: 75.1 cP | Viscosity Reduction [5]: 5.8%

O=C(O)c1ccc(O)cc1 [4-hydroxybenzoic acid]
Normalized Viscosity ([6]; primary excipient 30 mg/mL, no secondary): 0.61

c1c[nH]cn1 [Imidazole HCl]
Viscosity Reduction ([1]; excipient 100 mg/mL): 57%

Cl.NCCc1ccc(O)cc1 [Tyramine HCl]
Observation of caffeine dissolution ([7]; co-solute 30 mg/mL): DND | Dissolution of caffeine enabled relative to reported solubility limit [7]: at least about four times | Viscosity Reduction ([1]; excipient 70 mg/mL): 59%

O=P([O-])([O-])[O-].[K+].[K+].[K+] [Potassium phosphate, potassium phosphate tribasic]
Viscosity [5]: 72.3 cP | Viscosity Reduction [5]: 9.3%

CCCCn1cc[n+](C)c1.[Cl-] [1-butyl-3-methylimidazolium chloride]
Viscosity Reduction ([1]; excipient 100 mg/mL): 52%

CC1=NCCN1.Cl [2-methyl-2-imidazoline HCl]
Normalized Viscosity ([1]; excipient 60 mg/mL): 0.43 | Viscosity Reduction ([1]; excipient 60 mg/mL): 57%

NC(=O)c1cccnc1 [Niacinamide]
Viscosity ([3]; excipient 48 mg/mL): 39 cP | Viscosity Reduction ([3]; excipient 48 mg/mL): 51% | Observation of caffeine dissolution ([7]; co-solute 30 mg/mL): DND | Viscosity Reduction ([1]; excipient 50 mg/mL): 49%

CCCCCCn1cc[n+](C)c1.[Cl-] [1-hexyl-3-methylimidazolium chloride]
Viscosity Reduction ([1]; excipient 65 mg/mL): 11%

Cn1c(=O)c2[nH]cnc2n(C)c1=O [Theophylline]
Normalized Viscosity ([4]; excipient A 10 mg/mL): 0.84

O=C(O)CN(CCN(CC(=O)O)CC(=O)O)CC(=O)O [EDTA/K salt, ethylenediaminetetraacetic acid (EDTA)]
Viscosity ([2]; excipient 20 mg/mL): 76.9 cP | Viscosity Reduction ([2]; excipient 20 mg/mL): 27% | Viscosity ([2]; excipient 40 mg/mL): 67.1 cP | Viscosity Reduction ([2]; excipient 40 mg/mL): 36%

NCCN [Ethylene diamine]
Viscosity ([2]; excipient 20 mg/mL): 83.9 cP | Viscosity Reduction ([2]; excipient 20 mg/mL): 15% | Viscosity ([2]; excipient 40 mg/mL): 84.7 cP | Viscosity Reduction ([2]; excipient 40 mg/mL): 17%

Nc1cccnc1 [3-aminopyridine]
Viscosity Reduction ([1]; excipient 50 mg/mL): 49%

O=C(O)CCCC[C@@H]1SC[C@@H]2NC(=O)N[C@@H]21 [Biotin]
Viscosity Reduction ([1]; excipient 20 mg/mL): 31%

COC(=O)[C@H](Cc1ccccc1)NC(=O)[C@@H](N)CC(=O)O [Aspartame] (H-Asp-Phe-OMe)
Normalized Viscosity ([4]; excipient A 10 mg/mL): 0.83

O=C([O-])c1cccnc1.[Na+] [Nicotinic acid, sodium salt]
Viscosity Reduction ([1]; excipient 100 mg/mL): 46%

CC1=CC(=O)NS(=O)(=O)O1 [Acesulfame K, acesulfame potassium]
Normalized Viscosity ([4]; excipient A 40 mg/mL): 0.61 | Normalized Viscosity ([4]; excipient A 80 mg/mL): 0.44 | Observation of caffeine dissolution ([7]; co-solute 80 mg/mL): DND

c1c[nH]cn1 [Imidazole]
Normalized Viscosity ([6]; no primary, secondary excipient 5 mg/mL): 0.75

NC(=O)c1ccncc1 [Isonicotinamide]
Viscosity Reduction ([1]; excipient 50 mg/mL): 52%

Cn1cncc1C[C@H](NC(=O)CCN)C(=O)O.O=[N+]([O-])O [L-Anserine nitrate]
Viscosity Reduction ([1]; excipient 50 mg/mL): 21%

O=C1CCCN1 [2-Pyrrolidinone]
Viscosity Reduction ([1]; excipient 60 mg/mL): 32%

CCN(CC)C(=O)c1cccnc1 [N,N-diethyl nicotinamide]
Viscosity Reduction ([1]; excipient 50 mg/mL): 33%

N=C(N)NCCCCN.O=S(=O)(O)O [Agmatine sulfate]
Viscosity Reduction ([1]; excipient 55 mg/mL): 23%

O=C(O)CC(O)(CC(=O)O)C(=O)O
Viscosity ([2]; excipient 20 mg/mL): 73.3 cP | Viscosity Reduction ([2]; excipient 20 mg/mL): 28% | Viscosity ([2]; excipient 40 mg/mL): 56.8 cP | Viscosity Reduction ([2]; excipient 40 mg/mL): 44% | Viscosity [5]: 74.9 cP | Viscosity Reduction [5]: 6.0%

O=C1NS(=O)(=O)c2ccccc21.[Na] [Saccharin, Na, saccharin sodium salt]
Observation of caffeine dissolution ([7]; co-solute 45 mg/mL): DND | Dissolution of caffeine enabled relative to reported solubility limit [7]: at least about four times

CC(O)(P(=O)(O)O)P(=O)(O)O [etidronic acid/Na salt, etidronic acid]
Viscosity ([2]; excipient 12 mg/mL): 79.4 cP | Viscosity Reduction ([2]; excipient 12 mg/mL): 24% | Viscosity ([2]; excipient 24 mg/mL): 71.6 cP | Viscosity Reduction ([2]; excipient 24 mg/mL): 32%

N=C(N)NCCS(=O)(=O)O [Product of Example 8, Guanyl taurine]
Viscosity ([3]; excipient 26 mg/mL): 58 cP | Viscosity Reduction ([3]; excipient 26 mg/mL): 27% | Viscosity ([3]; excipient 58 mg/mL): 50 cP | Viscosity Reduction ([3]; excipient 58 mg/mL): 37% | Viscosity ([3]; excipient 76 mg/mL): 49 cP | Viscosity Reduction ([3]; excipient 76 mg/mL): 38% | Viscosity ([3]; excipient 103 mg/mL): 46 cP | Viscosity Reduction ([3]; excipient 103 mg/mL): 42% | Viscosity ([3]; excipient 129 mg/mL): 47 cP | Viscosity Reduction ([3]; excipient 129 mg/mL): 41% | Viscosity ([3]; excipient 159 mg/mL): 42 cP | Viscosity Reduction ([3]; excipient 159 mg/mL): 47% | Viscosity ([3]; excipient 163 mg/mL): 42 cP | Viscosity Reduction ([3]; excipient 163 mg/mL): 47%

CN(C)CCCN [DMAPA-HCl, dimethylaminopropylamine]
Viscosity ([3]; excipient 40 mg/mL): 54 cP | Viscosity Reduction ([3]; excipient 40 mg/mL): 32% | Viscosity ([3]; excipient 87 mg/mL): 57 cP | Viscosity Reduction ([3]; excipient 87 mg/mL): 28%

Arg-His [Dipeptide RH (Arg-His)]
Viscosity ([3]; excipient 50 mg/mL): 52 cP | Viscosity Reduction ([3]; excipient 50 mg/mL): 34% | Viscosity ([3]; excipient 100 mg/mL): 72 cP | Viscosity Reduction ([3]; excipient 100 mg/mL): 9%

O=C(O)CN(CCN(CC(=O)O)CC(=O)O)CC(=O)O [EDTA/Na salt, ethylenediaminetetraacetic acid (EDTA)]
Viscosity ([2]; excipient 20 mg/mL): 77.4 cP | Viscosity Reduction ([2]; excipient 20 mg/mL): 26% | Viscosity ([2]; excipient 40 mg/mL): 68.1 cP | Viscosity Reduction ([2]; excipient 40 mg/mL): 35%

C1COCCN1.Cl [Morpholine HCl]
Viscosity Reduction ([1]; excipient 50 mg/mL): 40%

Trp2Lys3
Viscosity ([3]; excipient 50 mg/mL): 60 cP | Viscosity Reduction ([3]; excipient 50 mg/mL): 24% | Viscosity ([3]; excipient 100 mg/mL): 59 cP | Viscosity Reduction ([3]; excipient 100 mg/mL): 25%

CC(O)(P(=O)(O)O)P(=O)(O)O [etidronic acid/K salt, etidronic acid]
Viscosity ([2]; excipient 12 mg/mL): 80.5 cP | Viscosity Reduction ([2]; excipient 12 mg/mL): 23% | Viscosity ([2]; excipient 24 mg/mL): 71.91 cP | Viscosity Reduction ([2]; excipient 24 mg/mL): 31%
